# Tests used:
# human cyclin D1-CDK4 = human cyclin D1-CDK4 (Homo sapiens, UniProt P11802); assay: CDK4 HTRF kinase assay (Ki measurement); type: biochemical; conditions: ATP at 3x Km
# Method: To determine inhibition of Cdk4, Cdk2 and Cdk1 activity, kinase assays were conducted using FlashPlateTM assays (NENTM-Life Science Products). […] W. Harper at the Baylor College of Medicine, Houston, Tex. Proteins were co-expressed in High FiveTM insect cells and the complex was purified on glutathione Sepharose resin (Pharmacia, Piscataway, N.J.) as previously described (Harper, J. W. et al. Cell 1993, 75, 805-816). A 6×-Histidine tagged […]) was used as the substrate for the cycD1-CDK4, cycB-CDK1 and the cycE-CDK2 assays (the expression plasmid was provided by Dr. Veronica Sullivan, Department of Molecular Virology, Roche Research Centre, Welwyn Garden City, United Kingdom). The Rb protein is a natural substrate for phosphorylation by CDK4, CDK2 and CDK1 (see Herwig and Strauss Eur. J. Biochem. Vol. 246 (1997) pp. 581-601 and the references cited therein). Alternatively, inhibition activity may be measured using Ki. Using the protein constructs described above in Example 19A above, CDK1, CDK2, and CDK4 HTRF assays were set up. These were done in 96-well format and read in 384-well plate format. The assays were run at 3× their respective Kms for ATP. In the CDK4 assay, test compounds were diluted to 3× their final concentrations in 25 mM Hepes, pH 7.0, 6.25 mM MgCl2, 1.5 mM DTT, 135 μM ATP. The DMSO concentration was no greater than 4.76%. Twenty microliters were added to the wells of a 96-well plate. The kinase reaction was initiated by the addition of 40 μl/well of a solution containing 0.185 μM Rb and 2.25 μg/ml CDK4 in 25 mM Hepes, pH 7.0, 6.25 mM MgCl2, 0.003% Tween-20, 0.3 mg/ml BSA, 1.5 mM DTT. Blank wells without CDK4 were included. The plates were incubated at 37° C. for 30 minutes with shaking. The kinase reaction was terminated by the addition of 15 μl/well of 1.6 uM anti-phospho-Rb ([…]) antibody (Cell Signaling Inc.) in 25 mM Hepes, pH 7.0, 24 mM EDTA, 0.2 mg/ml BSA. After 30 minutes at 37° C., 15 μl/well of 3 nM Lance-Eu-W1024 labeled anti-rabbit IgG and 60 nM Allophycocyanin conjugated anti-His6 (PerkinElmer Life Sciences) in 25 mM Hepes, pH 7.0, 0.5 mg/ml BSA were added. Following a one hour incubation at 37 deg C., 35 μl of each well, in duplicate, were transferred to 384-well black plates. The plates were read using either ViewLux or Victor V readers (PerkinElmer Life Sciences) using an excitation wavelength of 340 nm and dual emission wavelengths of 615 nm and 665 nm. IC50 values (the concentration of test compounds reducing the assay control fluorescence read-out by 50%) were first calculated from net readings at 665 nm, normalized for europium readings at 615 nm. For ATP competitive inhibitors, the Ki values were calculated according to the following equation: […]
# human cyclin B-CDK1 = human cyclin B-CDK1 (Homo sapiens, UniProt P06493); assay: CDK1 HTRF kinase assay (Ki measurement); type: biochemical; conditions: ATP at 3x Km
# Method: (§1) To determine inhibition of Cdk4, Cdk2 and Cdk1 activity, kinase assays were conducted using FlashPlate™ assays (NEN™-Life Science Products). FlashPlate assays were performed using recombinant human cyclin B-CDK1, human cyclin E-CDK2 or human cyclin D1-CDK4 complexes. GST-cyclinE (GST-cycE), CDK2, GST-cyclinB (GST-cycB), CDK1, GST-CDK4 and cyclin D1 (cycD1) cDNA clones in baculovirus vectors were provided by Dr. W. Harper at the Baylor College of Medicine, Houston, Tex.
# (§2) Alternatively, inhibition activity may be measured using Ki. […] These were done in 96-well format and read in 384-well plate format. The assays were run at 3× their respective Kms for ATP.
# Twenty microliters were added to the wells of a 96-well plate. […] Blank wells without CDK4 were included. The plates were incubated at 37° C. for 30 minutes with shaking. […] After 30 minutes at 37° C., 15 μl/well of 3 nM Lance-Eu-W1024 labeled anti-rabbit IgG and 60 nM Allophycocyanin conjugated anti-His6 (PerkinElmer Life Sciences) in 25 mM Hepes, pH 7.0, 0.5 mg/ml BSA were added. Following a one hour incubation at 37 deg C., 35 μl of each well, in duplicate, were transferred to 384-well black plates. The plates were read using either ViewLux or Victor V readers (PerkinElmer Life Sciences) using an excitation wavelength of 340 nm and dual emission wavelengths of 615 nm and 665 nm. […] For ATP competitive inhibitors, the Ki values were calculated according to the following equation: Ki=IC50/(1+S/Km) where S refers to the substrate concentration and Km refers to the Michaelis-Menten constant.
# (§3) The CDK1 and CDK2 assays were similarly run except for small differences in reagent and protein concentrations:
# The compound and enzyme buffers for both assays contained 10 mM MgCl2. […] CDK1 at a reagent concentration of 0.15 ng/ul and CDK2 at a reagent concentration of 0.06 ng/ul were used.
# [1] = system: HCT116 colorectal carcinoma cell line; assay: Tetrazolium dye proliferation assay (MTT assay); type: cell-based; conditions: Homo sapiens, HCT-116, HCT116 cells
# Method: Proliferation was evaluated by the tetrazolium dye assay according to the procedure of Denizot and Lang (Denizot, F. and Lang, R. J Immunol Methods 1986, 89, 271-277). The cell line used was HCT116, a colorectal carcinoma cell line obtained from the American Type Cell Culture Collection (ATCC; Rockville, Md.). The cells were grown in McCoy's 5A medium supplemented with 10% FCS and L-glutamine.
# Cells were plated at the appropriate seeding density to give logarithmic growth over the course of the assay in a 96-well tissue culture plate. Plates were incubated overnight at 37° C. in a humidified incubator with 5% CO2. The next day, test compounds were serially diluted to four times the final concentration in the appropriate medium containing 1.2% DMSO. One-fourth final volume of each dilution was added in duplicate to the plates containing cells. The same volume of 1.2% DMSO in medium was added to a row of “control wells” such that the final concentration of DMSO in each well was 0.3%. Wells to which no cells were added served as the “blank.” Wells to which no inhibitor was added served as “no inhibitor control.” The plates were) returned to the incubator, and at set time points (determined by their growth curves) plates were analyzed as described below.
# 3-(4,5-dimethylthiazole-2-yl)-2,5-diphenyl-2H-tetrazolium bromide (thiazolyl blue; MTT; Sigma) was added to each well to yield a final concentration of 1 mg/ml. Plates were returned to the incubator for 2.5-3 hours at 37° C. The MTT-containing medium was removed and the resulting formazan metabolite was solubilized in 100% ethanol with shaking for 15 minutes at room temperature. Absorbance readings were taken in a microtiter plate reader (Dynatech and Molecular Devices plate readers were used interchangeably) at a wavelength of 570 nm with a 650 nm reference. Percent inhibition (% INH) is calculated by subtracting the absorbance of the blank well from all wells, then subtracting the ratio of the average absorbance of each test duplicate (SAVE) by the average of the controls (CAVE) from 1.00. The final number is then multiplied by 100 (% INH=(1.00−SAVE/CAVE)×100). The concentration at which 50% inhibition of cell proliferation is obtained (the IC50) is determined from the linear regression of a plot of the logarithm of the concentration versus percent inhibition.
# human cyclin E-CDK2 = human cyclin E-CDK2 (Homo sapiens, UniProt P24941); assay: CDK2 HTRF kinase assay (Ki measurement); type: biochemical; conditions: HTRF assay, ATP at 3x Km; read-out: Ki CDK2
# Method: as §1, §2
# Twenty microliters were added to the wells of a 96-well plate. […] Blank wells without CDK4 were included. The plates were incubated at 37° C. for 30 minutes with shaking. […] After 30 minutes at 37° C., 15 μl/well of 3 nM Lance-Eu-W1024 labeled anti-rabbit IgG and 60 nM Allophycocyanin conjugated anti-His6 (PerkinElmer Life Sciences) in 25 mM Hepes, pH 7.0, 0.5 mg/ml BSA were added. Following a one hour incubation at 37 deg C., 35 μl of each well, in duplicate, were transferred to 384-well black plates. The plates were read using either ViewLux or Victor V readers (PerkinElmer Life Sciences) using an excitation wavelength of 340 nm and dual emission wavelengths of 615 nm and 665 nm.
# as §3
# The compound and enzyme buffers for both assays contained 10 mM MgCl2.
# human cyclin B-CDK1, sequence (P06493 whole entry): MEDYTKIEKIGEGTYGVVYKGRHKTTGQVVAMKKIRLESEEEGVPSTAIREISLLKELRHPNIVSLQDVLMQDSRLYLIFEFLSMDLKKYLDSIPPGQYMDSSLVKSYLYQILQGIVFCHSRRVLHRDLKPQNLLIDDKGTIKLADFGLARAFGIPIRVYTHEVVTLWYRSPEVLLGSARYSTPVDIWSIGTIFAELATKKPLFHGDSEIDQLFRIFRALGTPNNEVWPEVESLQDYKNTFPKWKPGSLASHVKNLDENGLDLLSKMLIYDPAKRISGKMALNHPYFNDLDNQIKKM
# human cyclin B-CDK1, sequence (P14635 whole entry partner): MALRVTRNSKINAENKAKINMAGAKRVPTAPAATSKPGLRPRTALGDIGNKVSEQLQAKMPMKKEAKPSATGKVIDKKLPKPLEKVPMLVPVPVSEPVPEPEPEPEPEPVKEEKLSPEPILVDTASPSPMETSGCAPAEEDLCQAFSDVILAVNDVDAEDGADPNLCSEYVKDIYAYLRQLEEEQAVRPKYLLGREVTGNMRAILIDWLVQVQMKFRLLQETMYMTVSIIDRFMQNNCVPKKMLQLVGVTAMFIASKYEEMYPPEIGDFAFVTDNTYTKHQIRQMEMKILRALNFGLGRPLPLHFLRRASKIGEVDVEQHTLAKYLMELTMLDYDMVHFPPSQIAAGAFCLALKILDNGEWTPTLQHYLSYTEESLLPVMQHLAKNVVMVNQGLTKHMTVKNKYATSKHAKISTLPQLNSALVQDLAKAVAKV
# human cyclin D1-CDK4, sequence (P11802 whole entry): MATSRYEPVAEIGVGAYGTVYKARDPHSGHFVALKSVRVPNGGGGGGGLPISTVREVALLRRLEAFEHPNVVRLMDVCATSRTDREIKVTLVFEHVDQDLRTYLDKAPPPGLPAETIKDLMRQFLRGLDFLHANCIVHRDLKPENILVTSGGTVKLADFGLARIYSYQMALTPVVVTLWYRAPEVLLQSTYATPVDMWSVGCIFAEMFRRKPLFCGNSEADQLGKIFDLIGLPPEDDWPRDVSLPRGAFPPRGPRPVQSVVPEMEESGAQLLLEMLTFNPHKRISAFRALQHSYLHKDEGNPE
# human cyclin D1-CDK4, sequence (P24385 whole entry partner): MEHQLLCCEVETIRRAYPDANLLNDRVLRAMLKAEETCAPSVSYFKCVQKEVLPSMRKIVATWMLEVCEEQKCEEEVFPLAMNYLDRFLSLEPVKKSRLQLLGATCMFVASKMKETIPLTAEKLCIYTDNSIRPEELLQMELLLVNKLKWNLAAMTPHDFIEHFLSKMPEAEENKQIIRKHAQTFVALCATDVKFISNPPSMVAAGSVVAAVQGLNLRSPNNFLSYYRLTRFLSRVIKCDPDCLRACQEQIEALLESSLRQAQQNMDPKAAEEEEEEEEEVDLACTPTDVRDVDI
Ki (human cyclin D1-CDK4) [nM],Ki (human cyclin B-CDK1) [nM],IC50 [1] [nM],Ki (human cyclin E-CDK2) [nM],SMILES
0.17,0.13,20,–,"COc1ccc(F)c(F)c1C(=S)c1cnc(NC2CCN(S(C)(=O)=O)CC2)nc1N [Example 1, [4-Amino-2-(1-methanesulfonyl-piperidin-4-ylamino)-pyrimidin-5-yl]-(2,3-difluoro-6-methoxy-phenyl)-methanethione]"
0.6,0.27,12,0.18,"COc1ccc(F)c(F)c1C(=S)c1cnc(N[C@H]2CC[C@H](NS(C)(=O)=O)CC2)nc1N [Example 2, N-{4-[4-Amino-5-(2,3-difluoro-6-methoxy-thiobenzoyl)-pyrimidin-2-ylamino]-cyclohexyl}methanesulfonamide]"
1.33,0.42,13,0.27,"COc1ccc(F)c(F)c1C(=S)c1cnc(N[C@H]2CC[C@H](N(C)S(C)(=O)=O)CC2)nc1N [Example 3, N-{4-[4-Amino-5-(2,3-difluoro-6-methoxy-thiobenzoyl)-pyrimidin-2-ylamino]-cyclohexyl}-N-methylmethanesulfonamide]"
< 1,< 3,3,< 1,"COc1ccc(F)c(F)c1C(=S)c1cnc(NC2CCN(S(N)(=O)=O)CC2)nc1N [Example 4, 4-[4-Amino-5-(2,3-difluoro-6-methoxy-thiobenzoyl)-pyrimidin-2-ylamino]-piperidine-1-sulfonic acid amide]"
5,6,–,16,"CS(=O)(=O)N1CCC(Nc2ncc(C(=S)c3c(F)c(F)cc4ncoc34)c(N)n2)CC1 [Example 7, [4-Amino-2-(1-methanesulfonyl-piperidin-4-ylamino)-pyrimidin-5-yl]-(5,6-difluoro-benzooxazol-7-yl)-methanethione]"
37,89,–,65,"COc1ccc(F)cc1C(=S)c1cnc(NCCCNS(C)(=O)=O)nc1N [Example 8, N-{3-[4-Amino-5-(5-fluoro-2-methoxy-thiobenzoyl)-pyrimidin-2-ylamino]-propyl}-methanesulfonamide]"
–,14,–,1,"COc1ccc(F)c(F)c1C(=S)c1cnc(NC2CCN(S(=O)(=O)CCCN3CCOCC3)CC2)nc1N [Example 9, {4-Amino-2-[1-(3-morpholin-4-yl-propane-1-sulfonyl)-piperidin-4-ylamino]-pyrimidin-5-yl}(2,3-difluoro-6-methoxy-phenyl)-methanethione]"
–,3,–,1,"COc1ccc(F)c(F)c1C(=S)c1cnc(NC2CCN(S(=O)(=O)c3ccccn3)CC2)nc1N [Example 10, {4-Amino-2-[1-(pyridine-2-sulfonyl)-piperidin-4-ylamino]-pyrimidin-5-yl}-(2,3-difluoro-6-methoxy-phenyl)-methanethione]"
10,43,–,12,"CS(=O)(=O)N1CCC(Nc2ncc(C(=S)c3cccs3)c(N)n2)CC1 [Example 11, [4-Amino-2-(1-methanesulfonyl-piperidin-4-ylamino)-pyrimidin-5-yl]-thiophen-2-yl-methanethione]"
7,3,–,1,"COc1ccc(F)c(F)c1C(=S)c1cnc(Nc2ccc(S(C)(=O)=O)cc2)nc1N [Example 12, [4-Amino-2-(4-methanesulfonyl-phenylamino)-pyrimidin-5-yl]-(2,3-difluoro-6-methoxy-phenyl)-methanethione]"
15,27,–,10,"CS(=O)(=O)N1CCC(Nc2ncc(C(=S)c3ccccc3)c(N)n2)CC1 [Example 16, [4-Amino-2-(1-methanesulfonyl-piperidin-4-ylamino)-pyrimidin-5-yl]-phenyl-methanethione]"
–,261,–,195,"COc1ccc(F)cc1C(=S)c1cnc(NC2CCN(C(=O)OC(C)(C)C)CC2)nc1N [Example 17, 4-[4-Amino-5-(5-fluoro-2-methoxy-thiobenzoyl)-pyrimidin-2-ylamino]-piperidine-1-carboxylic acid tert-butyl ester]"
2.8,–,–,1,"COc1ccc(F)c(F)c1C(=S)c1cnc(NC2CCN(S(C)(=O)=O)C2)nc1N (centres unmarked) [Example 18, [4-Amino-2-(1-methanesulfonyl-pyrrolidin-3-ylamino)-pyrimidin-5-yl]-(2,3-difluoro-6-methoxy-phenyl)-methanethione]"

# From US7705009B2, “4-aminopyrimidine-5-thione derivatives” (Hoffman-La Roche Inc., priority 2005, dated 2010)
